Patent US11040954B1, “CXCR3 receptor agonists” (RECEPTOS LLC, priority 2016, dated 2021)

Columns and labels:
[1] = Mouse pharmacokinetics after oral gavage, plasma drug concentration by LC-MS/MS (C57BL/6); format: in vivo, C57bl/6 mice; settings: C57BL/6, 60 mg/kg, female mice; for Cmax / AUC(0-t): mouse, plasma; for AUC(0-t): read-out: AUC0-24
Procedure: Compounds were formulated in 5% DMSO/5% Tween20 in H2O, sonicated, vortexed, and put on stir plate overnight at a dose volume of 10 mL/kg. Balb/C (Jackson laboratories) or C57bl/6 (Taconic Biosciences) mice (8-9 weeks old) were acclimated to the colony for 3 days prior to dosing. Water and food were provided ab libitum. Compounds were administered by oral gavage. Groups of six animals received 3 to 4 bleeds per day with one terminal bleed. The time points were 30 min, 1 h, 2 h, 4 h, 6 h, 8 h, 24 h. Plasma was collected via centrifugation and analyzed for drug concentrations.
Preparation of Study Samples and Standards for Analysis by LC-MS/MS
50 μl of plasma was aliquoted into a 96 well deep-well polypropylene plate (2 mL) to which 5 μL of DMSO was added. For standards, 5 μl of test compound in DMSO at […] the standard concentration was added to 50 μl of blank matrix in a 96 well deep-well polypropylene plate. For example, for a 300 nM standard, the 10× DMSO concentration was 3 μM. Study samples that require dilution are diluted with the appropriate blank matrix. For example, for a 10× dilution, 5 μL of study sample is added to 45 μl of blank matrix. Protein was precipitated from study samples and standards with the addition of 150 μl of acetonitrile. After a clean plate map was placed firmly over the top of the 96-well plate, a bench top shaker was used for 1 min to ensure complete precipitation of protein. The precipitated protein was pelleted by centrifuging for 3,000 rpm for 10 min at 20° C. and then the clear supernatant was transferred to a clean 96-well plate and spun again under the same conditions in order to pellet any solid material that may have been transferred.
Analysis of Study Samples and Standards with LCMS with MRM Detection
An Agilent 1200 HPLC with binary pump and a Leap CTC with fast wash autosampler were used to introduce samples to the mass spectrometer.
The column used was a Phenomenex Luna C8 30×2 mm 5 μm with a security guard. Mass detection was performed by an Applied Biosystems 4000 Qtrap in MRM mode and ionization was achieved by positive electrospray with a source temperature of 500° C. The ion transitions, […] potential and collision energies were dependent on the specific analyte.
Prepared samples were usually analyzed in reverse chronological order with bracketing standard curves. Typically at least 6 standards were used for quantification with a percent accuracy of +/−15% for all standards except at the LLOQ where a percent accuracy of +/−20% was allowed. The concentration time profile was fit using a one compartment model for the applicable mode of dosing using Phoenix WinNonLin 6.4.

CXCR3 = molecular target: T1, CXCR3 (Homo sapiens, UniProt P49682); experiment: CXCR3 cAMP agonist assay (cAMP Hunter CHOK1 CXCR3 Gi cell line, forskolin-stimulated, HitHunter cAMP detection); format: cell-based; settings: cAMP Hunter CHOK1 CXCR3 Gi cells, 20 μM forskolin, 30 minutes; read-out: Activity (CXCR3 cAMP agonist assay compound EC50)
T1 construct: host or cells: CHO-K1 (cAMP Hunter CHOK1 CXCR3 Gi cell line)
T1 sequence (P49682 1-368): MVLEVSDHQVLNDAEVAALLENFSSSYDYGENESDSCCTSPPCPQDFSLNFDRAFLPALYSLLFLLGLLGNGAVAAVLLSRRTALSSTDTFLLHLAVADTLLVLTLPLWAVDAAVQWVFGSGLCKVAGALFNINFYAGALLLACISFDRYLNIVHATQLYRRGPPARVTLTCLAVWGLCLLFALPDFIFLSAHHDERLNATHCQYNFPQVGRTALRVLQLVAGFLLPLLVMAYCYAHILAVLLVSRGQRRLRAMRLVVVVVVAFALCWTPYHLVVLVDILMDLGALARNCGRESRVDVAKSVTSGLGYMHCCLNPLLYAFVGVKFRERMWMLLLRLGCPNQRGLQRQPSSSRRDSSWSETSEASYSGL
Outline: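 Agonist activity was measured as suppression of forskolin (20 μM)-induced cAMP, read by luminescent enzyme-fragment complementation with a cAMP standard curve and CXCL11 defining full efficacy. Assay used 50,000 CXCR3 Gi CHOK1 cells/well in pH 7.4 HEPES-buffered HBSS with 0.1% BSA, compound 0-10 μM over 12 points, 30 min incubation.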

Compound	apparent oral clearance (CL/F) [1] [mL/min/kg]	Cmax [1] [nM]	AUC(0-t) [1] [µM·h]	EC50 (CXCR3) [µM]
Cc1cc(NC(=O)[C@H](CCN)NC(=O)[C@@H]2Cc3ccccc3CN2C(=O)CCC(=O)N(C)CC(C)(C)C)ccc1Cl [Compound 12-114]	823	600	2.1	< 0.05
CN1CCN(C(=O)CCC(=O)N2Cc3ccccc3C[C@H]2C(=O)NC2(C(=O)Nc3ccc(Cl)c(Cl)c3F)CCNCC2)CC1 [Compound 12-138]	851	500	1.8	< 0.05
NCC[C@H](NC(=O)[C@@H]1Cc2ccccc2CN1C(=O)CCC(=O)N1CCCC12CCC2)C(=O)Nc1ccc(Cl)c(Cl)c1F [Compound 12-152]	190	2800	8.3	< 0.05
Cc1ccc(C(F)(F)F)c(NC(=O)[C@H](CCN)NC(=O)[C@@H]2Cc3ccccc3CN2C(=O)CCC(=O)c2ccccc2)c1 [Compound 14-17]	22	22000	78	< 0.05
Cc1cc(NC(=O)[C@H](CCN)NC(=O)[C@@H]2Cc3ccccc3CN2C(=O)CCC(=O)c2ccccc2)c(C#N)cc1Cl [Compound 14-18]	222	3200	7.7	< 0.05
Cc1cc(NC(=O)[C@H](CCN)NC(=O)[C@@H]2Cc3ccccc3CN2C(=O)CCC(=O)c2ccccc2)c(OC(F)(F)F)cc1C [Compound 14-28]	47	5200	33.8	< 0.05
CC1(C)CCN(C(=O)CCC(=O)N2Cc3ccccc3C[C@H]2C(=O)N[C@@H](CCN)C(=O)Nc2ccc(Cl)c(Cl)c2F)C1 [Compound 15-2]	347	1800	4.6	< 0.05
CC1(C)CCCCN1C(=O)CCC(=O)N1Cc2ccccc2C[C@H]1C(=O)N[C@@H](CCN)C(=O)Nc1ccc(Cl)c(Cl)c1F [Compound 15-3]	666	600	2.4	< 0.05
CC1(C)CCCN(C(=O)CCC(=O)N2Cc3ccccc3C[C@H]2C(=O)N[C@@H](CCN)C(=O)Nc2ccc(Cl)c(Cl)c2F)C1 [Compound 15-6]	90	5700	17.6	< 0.05
Cc1c(Cl)ccc(NC(=O)[C@H](CCN)NC(=O)[C@@H]2Cc3ccccc3CN2C(=O)CCC(=O)N2CCCC23CCC3)c1Cl [Compound 15-48]	98	6700	16.3	< 0.05
CC1(C)CCCCN1C(=O)CCC(=O)N1Cc2cc(F)ccc2C[C@H]1C(=O)N[C@@H](CCN)C(=O)Nc1ccc(Cl)c(Cl)c1F [Compound 15-62]	1100	600	1.4	< 0.05
Cc1cc(NC(=O)[C@H](CCN)NC(=O)[C@@H]2Cc3ccccc3CN2C(=O)CCC(=O)N2CCCCC2(C)C)c(C#N)cc1Cl [Compound 18-1, (S)—N—((S)-4-amino-1-((4-chloro-2-cyano-5-methylphenyl)amino)-1-oxobutan-2-yl)-2-(4-(2,2-dimethylpiperidin-1-yl)-4-oxobutanoyl)-1,2,3,4-tetrahydroisoquinoline-3-carboxamide]	565	1200	2.9	< 0.05
Cc1cc(NC(=O)[C@H](CC23CC(N)(C2)C3)NC(=O)[C@@H]2Cc3ccccc3CN2C(=O)CCC(=O)c2ccccc2)ccc1Cl [Compound 22-1, (S)—N—((S)-3-(3-aminobicyclo[1.1.1]pentan-1-yl)-1-((4-chloro-3-methylphenyl)amino)-1-oxopropan-2-yl)-2-(4-oxo-4-phenylbutanoyl)-1,2,3,4-tetrahydroisoquinoline-3-carboxamide]	34	7300	48	< 0.05
